Source: US20150152091A1, “CROP ENHANCEMENT” (Syngenta Participations AG, priority 2012, published 2015)

What was measured:
Assay type in all cases: in vivo
[1] = tested on: Soybean seeds cv. Toliman; experiment: Soybean seedling emergence in saturated warm test (seed treatment)
Method: Soybean seeds cv. Toliman were treated with a test compound of formula I formulated as FS100, at a dose of 0.05 g ai/kg, 0.005 g ai/kg, or 0.0001 g ai/kg seeds. Seeds were planted on 2 cm levelled pre-chilled moist sand and covered with a 2 cm layer of a mixture of steamed soil and sand (1:1). Enough cold water (10° C.) was added to the sand-soil mixture to adjust soil moisture to 60% water holding capacity. The seeds were incubated at 10° C. in the dark for 10 days and transferred into a chamber with alternating temperature (25° C. day/23° C. night) and light source (12 h) for 10 days. Seedling emergence in % and dry mass of above parts of seedling per tray was determined at the end of the incubation period. The test was performed using four replicates (4×50 seeds). Treated seeds used in the saturated cold test were evaluated in parallel in a saturated warm test. Test conditions were the same as those described for the 10 day warm incubation period of the saturated cold test. Briefly, seeds were placed onto a saturated sand layer of 2 cm and covered with saturated sand-soil mixture (60% WHC) at room temperature. The seeds were incubated 10 days at 25° C. day/23° C. night and 12 h light. Seedling emergence and shoot dry mass was determined as described in the saturated cold test method. The test was performed using four replicates each 50 seeds.

[2] = tested on: Soybean seeds cv. Toliman; experiment: Soybean seedling emergence in saturated cold test (seed treatment); settings: for Total shoot dry mass: per tray
Method: Soybean seeds cv. Toliman were treated with a test compound of formula I formulated as FS100, at a dose of 0.05 g ai/kg, 0.005 g ai/kg, or 0.0001 g ai/kg seeds. Seeds were planted on 2 cm levelled pre-chilled moist sand and covered with a 2 cm layer of a mixture of steamed soil and sand (1:1). Enough cold water (10° C.) was added to the sand-soil mixture to adjust soil moisture to 60% water holding capacity. The seeds were incubated at 10° C. in the dark for 10 days and transferred into a chamber with alternating temperature (25° C. day/23° C. night) and light source (12 h) for 10 days. Seedling emergence in % and dry mass of above parts of seedling per tray was determined at the end of the incubation period. The test was performed using four replicates (4×50 seeds).

[3] = tested on: temperate cauliflower Spacestar seeds (Brassica oleracea cv Botrytis); experiment: Standard paper germination test for Brassica, suboptimal conditions; settings: 25 μM, 10° C. in the light
Method: The effect of compounds of Formula (I) on the germination of Brassica oleracea cv Botrytis or common cauliflower was tested on two types of cauliflowers: temperate types and tropical types. These two types were chosen because they display different sensitivities to the light conditions and temperature during germination. Germination of a sensitive temperate type is inhibited by light at 10° C. while for the tropical types germination at 20° is stimulated by the presence of light. […] The temperate seed batches tested are part of commercially produced seed batches of various varieties which are known to be sensitive to light at 10° C. These seeds were harvested and cleaned according standard commercial procedures. Ready seed batches were used (Ready indicates the processing level of these seeds: they have been cleaned and sized but received no other treatments). The tropical seed batches tested are part of seed batches produced as basic seed (for maintenance of the parental line) and were processed accordingly. Germination was assessed using the standard paper germination test for Brassica: Fifty seeds were placed on blue germination paper, which was moistened with the appropriate solutions, in closed oblong germination boxes. Each condition was tested in duplo. Germination boxes were placed in controlled germination cabinets with the appropriate temperature and light conditions. Germination of seeds was counted at regular intervals. Seeds were considered to be germinated when the radical had protruded the testa and endosperm (radical size approximately 1 mm). Test compounds were dissolved in DMSO at a concentration of 50 mM and stored at −20° C. The strigolactone analogue GR24 (commercially available as a racemic mixture of 2 diastereoisomers, referred to as “synthetic strigolactone GR-24” and first prepared by Johnson A. W. & all, Journal of the Chemical Society, Perkin Transactions 1, 1981, page 1734-1743) was included as positive control. Germination solutions were prepared by diluting the stock solutions with demineralized water till 25 μM. As control solutions demineralized water and a 0.05% v/v DMSO solution were used.

[4] = 0.05 g ai/kg seeds, 10 days 25/23° C.
[5] = 0.05 g ai/kg seeds, FS100, 10 days 10° C. dark then 10 days 25/23° C.
[6] = Spacestar 11B313 (cold-sensitive), set A
[7] = Spacestar 11B314 (not cold sensitive), set A
[8] = Spacestar 11B313 (cold-sensitive), set B
[9] = Spacestar 11B314 (not cold sensitive), set B

Row | SMILES | Seedling emergence (%) ([1]; 0.0001 g ai/kg seeds) | Total shoot dry mass ([1]; 0.0001 g ai/kg seeds) [g] | Seedling emergence (%) ([1]; 0.005 g ai/kg seeds) | Total shoot dry mass ([1]; 0.005 g ai/kg seeds) [g] | Total shoot dry mass ([1]; 0.05 g ai/kg seeds) [g] | Seedling emergence (%) [1, 4] [%] | Seedling emergence (%) ([2]; 0.0001 g ai/kg seeds, FS100) | Total shoot dry mass ([2]; 0.0001 g ai/kg seeds) [g] | Seedling emergence (%) ([2]; 0.005 g ai/kg seeds, FS100) | Total shoot dry mass ([2]; 0.005 g ai/kg seeds) [g] | Seedling emergence (%) [2, 5] [%] | Total shoot dry mass ([2]; 0.05 g ai/kg seeds) [g] | Gmax (%), total germination as percentage of sown seeds [3, 6] [%] | stimulation (%), extra germination compared to the DMSO treatment [3, 6] [%] | Gmax (%), total germination as percentage of sown seeds [3, 7] [%] | stimulation (%), extra germination compared to the DMSO treatment [3, 7] [%] | Gmax (%), total germination as percentage of sown seeds [3, 8] [%] | stimulation (%), extra germination compared to the DMSO treatment [3, 8] [%] | Gmax (%), total germination as percentage of sown seeds [3, 9] [%] | stimulation (%), extra germination compared to the DMSO treatment [3, 9] [%]
1 | CC1=CC(OC=C2C(=O)N(c3ccccc3)C3c4ccccc4CC23)OC1=O (stereo not drawn) [Compound A3] | 91 | 6.158 | 87 | 6.235 | 5.918 | 81 | 67 | 4.838 | 57 | 4.540 | 51.5 | 3.850 | 74.5 | 24.2 | 89.5 | −1.1 |  |  |  | 
2 | CC1=CC(OC=C2C(=O)N(C(=O)OC(C)(C)C)C3c4ccccc4CC23)OC1=O (mixture of isomers) [Compound A5] | 91 | 6.260 | 91.5 | 6.095 | 6.148 | 91.5 | 48 | 3.420 | 51.5 | 3.815 | 55 | 4.105 | 74.5 | 24.2 | 92.5 | 2.2 |  |  |  | 
3 | CC1=C[C@H](O/C=C2/C(=O)O[C@@H]3c4ccccc4C[C@H]23)OC1=O [GR24, reference compound] |  |  |  |  |  |  |  |  |  |  |  |  | 71.5 | 19.2 | 93.5 | 3.3 | 80.0 | 48.1 | 93.0 | 8.1
4 | CC(=O)N1C(=O)C(=COC2C=C(C)C(=O)O2)C2Cc3ccccc3C21 (stereo not drawn) [Compound A4] | 89 | 6.035 | 90 | 5.908 | 5.920 | 86 | 62 | 4.788 | 62.5 | 4.550 | 61.5 | 4.850 | 82.0 | 36.7 | 91.0 | 0.6 |  |  |  | 
5 | CC1=C(C)C(OC=C2C(=O)NC3c4ccccc4CC23)OC1=O (stereo not drawn) [Compound A7] |  |  |  |  |  |  |  |  |  |  |  |  |  |  |  |  | 68.5 | 26.9 | 95.0 | 10.5
6 | CC1=CC(OC=C2C(=O)NC3c4cccc(Br)c4CC23)OC1=O (stereo not drawn) [Compound A2] | 89 | 5.763 | 87.5 | 6.105 | 6.325 | 91.5 | 48.5 | 3.810 | 49.5 | 3.725 | 56 | 3.993 |  |  |  |  |  |  |  | 
7 | CC1=CC(OC=C2C(=O)NC3c4ccccc4CC23)OC1=O (stereo not drawn) [Compound B1] | 91 | 5.778 | 94 | 6.440 | 5.935 | 89 | 58.5 | 4.440 | 67 | 5.065 | 44.5 | 3.365 | 60.5 | 0.8 | 93.5 | 3.3 |  |  |  | 
8 | CC1=CC(OC=C2C(=O)N(C)C3c4ccccc4CC23)OC1=O (stereo not drawn) [Compound A8] |  |  |  |  |  |  |  |  |  |  |  |  |  |  |  |  | 73.0 | 35.2 | 93.5 | 8.7
9 | CC1=CC(OC=C2C(=O)NC3c4cccc(C)c4CC23)OC1=O (mixture of isomers) [Compound A9] |  |  |  |  |  |  |  |  |  |  |  |  |  |  |  |  | 59.8 | 10.6 | 94.0 | 9.3
